Measured values from patent US9073857B2, “Aripiprazole type I microcrystal, aripiprazole solid preparations, and preparation method” (SHANGHAI ZHONGXI PHARMACEUTICAL CORPORATION, priority 2011, dated 2015).

Assay: Particle size by laser particle size distribution analyzer
Type: physicochemical
Details: Effect Example 2; microcrystals of the Examples
Method: Measure the particle size of aripiprazole in the sample by the following methods, and compare the particle size of aripiprazole in different prescriptions and under different operating conditions.
Test Instrument: BT˜9300S laser particle size distribution analyzer (Dandong Baxter technology Co., Ltd); BT˜800 automatic loop sampling system.
Test conditions: the medium of the loop sampling system is water, with the volume of about 570 ml, and the centrifugal pump speed is 1600 rpm.
Test Method: add appropriate amount of the samples into the loop sampling system, and make the absorbance of the system up to 15%±10, turn on the ultrasonic dispersion for 3 min, continuous sample for 6 times, and gain the average particle size.
1. Dissolve 10 g aripiprazole into aqueous ethanol solution containing hydrochloric acid (the molar ratio of hydrochloric acid to aripiprazole is 1.1, the concentration of the aqueous ethanol solution is 95%, the mass of the aqueous ethanol solution is 30 g), quickly add the 10% aqueous sodium hydroxide (the molar ratio of sodium hydroxide to hydrochloric acid is 1.01) all at once while stirring. Stir for 5 min then add 100 g water, stir again for 5 min, filter the precipitated crystal, wash twice with 20 g water each time and filter each time, dry the crystal at 80° C. for 4 hours, then obtain the aripiprazole microcrystal.
(§1) 2. Dissolve 10 g aripiprazole into aqueous ethanol solution with hydrochloric acid (the molar ratio of hydrochloric acid to aripiprazole is 1.02), quickly add the 10% aqueous sodium hydroxide (the molar ratio of sodium hydroxide to hydrochloric acid is 1.0) all at once while stirring (with stirring linear speed of 160 m/min). Stir for 5 min then add 100 g water, stir again for 5 min, filter the precipitated crystal, wash twice with 20 g water each time and filter each time, dry the crystals at 80° C. for 4 hours, then obtain the aripiprazole microcrystal.
as §1, with “3. Dissolve” for “2. Dissolve”, “acid (2.3 g 36% hydrochloric acid, 28.5 g anhydrous ethanol. The concentration” for “acid (the molar ratio”, “of the aqueous ethanol solution” for “of hydrochloric acid to aripiprazole”, “is 95%),” for “is 1.02), quickly”, “1.0)” for “1.0) all at once”, “the crystal” for “the crystals”

particle size D10	particle size D50	particle size D90	particle size D[4,3]	SMILES
1.43 micron	11.64 micron	34.65 micron	15.64 micron	O=C1CCc2ccc(OCCCCN3CCN(c4cccc(Cl)c4Cl)CC3)cc2N1 [Example 3, aripiprazole]
1.85 micron	10.91 micron	29.82 micron	14.17 micron	O=C1CCc2ccc(OCCCCN3CCN(c4cccc(Cl)c4Cl)CC3)cc2N1 [Example 2, aripiprazole]
0.74 micron	4.75 micron	16.34 micron	6.79 micron	O=C1CCc2ccc(OCCCCN3CCN(c4cccc(Cl)c4Cl)CC3)cc2N1 [Example 5, aripiprazole]

Second part, the compound before the results:

SMILES	particle size D10	particle size D50	particle size D90	particle size D[4,3]
O=C1CCc2ccc(OCCCCN3CCN(c4cccc(Cl)c4Cl)CC3)cc2N1 [Example 4, aripiprazole]	1.18 micron	8.78 micron	24.78 micron	10.99 micron
O=C1CCc2ccc(OCCCCN3CCN(c4cccc(Cl)c4Cl)CC3)cc2N1 [Contrastive Example 1, aripiprazole]	9.31 micron	29.85 micron	60.39 micron	32.85 micron
O=C1CCc2ccc(OCCCCN3CCN(c4cccc(Cl)c4Cl)CC3)cc2N1 [Example 23, aripiprazole]	1.52 micron	9.67 micron	32.17 micron	13.42 micron
O=C1CCc2ccc(OCCCCN3CCN(c4cccc(Cl)c4Cl)CC3)cc2N1 [Example 24, aripiprazole]	1.00 micron	3.93 micron	8.7 micron	4.73 micron

Same assay, conditions: starting aripiprazole microcrystals of Example 1

SMILES	D[4,3]
O=C1CCc2ccc(OCCCCN3CCN(c4cccc(Cl)c4Cl)CC3)cc2N1 [aripiprazole microcrystals, aripiprazole]	32.85 mircon

Assay: not given
Details: within 45 minutes; disclosed at the Japan and South Korea Analytical Chemistry Annual Meeting in 1998; cited from earlier work

SMILES	dissolution rate
O=C1CCc2ccc(OCCCCN3CCN(c4cccc(Cl)c4Cl)CC3)cc2N1 [aripiprazole type I crystal, aripiprazole]	less than 70%

Assay: not given
Details: crushed by the universal grinder through mechanical pulverization; cited from earlier work

SMILES	average particle size
O=C1CCc2ccc(OCCCCN3CCN(c4cccc(Cl)c4Cl)CC3)cc2N1 [aripiprazole, 7-[4-[4-(2,3-dichlorophenyl)-1-piperazinyl]butoxy]-3,4-dihydro-2(1H)-quinolinone]	about 100 micron
